The record followed here is patent US20250101052A1, “COMPOUND FOR EGFR KINASE INHIBITOR, COMPOSITION, AND USE THEREOF” (INNOVATION INSTITUTE FOR ARTIFICIAL INTELLIGENCE IN …, priority 2021, published 2025).

For one experiment, the system named is A431 cells. Briefly: A431 cell proliferation inhibition (SRB). The experiment is classed as cell-based. The settings on record: Homo sapiens, A-431, wild-type EGFR, 72 hours.
Experiment [1] deals with BaF3-EGFR^L858R/T790M/C797S cells. Nature of the experiment: BaF3 cell proliferation inhibition experiment (CCK-8). The experiment is classed as cell-based. Conditions: Ba/F3 EGFR-L858R, 72 hours.
Experiment [2] addresses EGFR^L858R/T790M/C797S kinase (Homo sapiens (Human), UniProt P00533, C797S/L858R/T790M). Briefly: EGFR^L858R/T790M/C797S kinase inhibitory activity experiment. The experiment is classed as biochemical. Conditions: in vitro. The method in brief: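 Human EGFR L858R/T790M/C797S mutant preincubated 10 min with compound (10-point dilution from 1 μM), then reacted 60 min at room temperature with ATP and kinase substrate 22. Substrate conversion read by Caliper mobility shift. % inhibition normalized to no-enzyme and no-compound wells, with IC50 from variable-slope log(inhibitor) fit.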

SMILES strings stand for the structures. pIC50: −log10 of the molar value.

Chain of EGFR^L858R/T790M/C797S kinase (P00533 25-1210 T790M/C797S/L858R): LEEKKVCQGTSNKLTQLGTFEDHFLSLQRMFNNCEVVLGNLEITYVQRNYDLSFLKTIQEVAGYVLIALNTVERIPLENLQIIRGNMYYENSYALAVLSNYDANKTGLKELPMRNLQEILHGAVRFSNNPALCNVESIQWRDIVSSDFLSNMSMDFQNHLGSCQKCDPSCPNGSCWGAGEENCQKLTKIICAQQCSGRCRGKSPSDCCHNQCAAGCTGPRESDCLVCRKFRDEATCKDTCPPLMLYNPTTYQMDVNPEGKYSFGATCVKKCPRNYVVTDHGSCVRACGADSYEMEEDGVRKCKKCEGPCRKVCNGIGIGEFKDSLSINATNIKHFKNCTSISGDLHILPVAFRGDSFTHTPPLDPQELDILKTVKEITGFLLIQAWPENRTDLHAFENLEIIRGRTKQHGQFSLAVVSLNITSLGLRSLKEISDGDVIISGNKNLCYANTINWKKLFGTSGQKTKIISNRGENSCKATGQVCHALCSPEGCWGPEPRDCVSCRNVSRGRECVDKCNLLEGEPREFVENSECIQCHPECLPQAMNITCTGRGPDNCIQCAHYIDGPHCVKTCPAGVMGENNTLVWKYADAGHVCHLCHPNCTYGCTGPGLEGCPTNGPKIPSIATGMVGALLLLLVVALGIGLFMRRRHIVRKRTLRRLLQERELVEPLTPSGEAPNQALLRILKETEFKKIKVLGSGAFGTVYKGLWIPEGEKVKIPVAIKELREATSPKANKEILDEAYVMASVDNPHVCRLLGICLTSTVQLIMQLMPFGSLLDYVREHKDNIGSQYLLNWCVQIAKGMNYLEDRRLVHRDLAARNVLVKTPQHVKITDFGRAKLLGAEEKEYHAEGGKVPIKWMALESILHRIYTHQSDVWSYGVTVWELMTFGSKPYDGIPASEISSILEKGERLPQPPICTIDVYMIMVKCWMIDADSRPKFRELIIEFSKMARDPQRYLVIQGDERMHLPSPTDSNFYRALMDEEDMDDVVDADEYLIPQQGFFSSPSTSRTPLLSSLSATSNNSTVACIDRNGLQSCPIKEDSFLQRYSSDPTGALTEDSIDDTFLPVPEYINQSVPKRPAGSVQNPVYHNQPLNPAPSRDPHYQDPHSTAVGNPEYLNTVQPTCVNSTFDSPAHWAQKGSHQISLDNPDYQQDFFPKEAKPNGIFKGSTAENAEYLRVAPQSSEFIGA

As for `CCc1cc(Nc2ncc(Cl)c(Nc3ccc(C)c(C)c3P(C)(C)=O)n2)c(OC)cc1N1CCC(N2C[C@H]3CC[C@@H](C2)N3C)CC1` [Compound 51, (6-((5-chloro-2-((5-ethyl-2-methoxy-4-(4-((1R,5S)-8-methyl-3,8-diazabicyclo[3.2.1]octan-3-yl)piperidin-1-yl)phenyl)amino)pyrimidin-4-yl)amino)-2,3-dimethylphenyl)dimethylphosphine oxide], the pIC50 in the experiment with A431 cells was 6.13; in experiment [1], 6.88; in experiment [2], 10.34.
The matching figures for `CCc1cc(Nc2ncc(Cl)c(Nc3ccc(C)c(C)c3P(C)(C)=O)n2)c(OC)cc1N1CC2(CCN(C)CC2)C1` [Compound 24, (6-((5-Chloro-2-((5-ethyl-2-methoxy-4-(7-methyl-2,7-diazaspiro[3.5]non-2-yl)phenyl)amino)pyrimidin-4-yl)amino)-2,3-dimethylphenyl)dimethylphosphine oxide]: less than 6.00, 7.36 and 9.26.
As to `CCc1cc(Nc2ncc(Cl)c(Nc3ccc(C)c(C)c3P(C)(C)=O)n2)c(OC)cc1N1CCC(N2CCN(C)CC2)CC1` [Comparative Compound A, reference compound], the pIC50 is 6.68 in the experiment with A431 cells, 7.32 in experiment [1] and 9.27 in experiment [2].
For the molecule `CCc1cc(Nc2ncc(Cl)c(Nc3ccc(C)c(C)c3P(C)(C)=O)n2)c(OC)cc1N1CCC2(CC1)CC(N(C)C)C2` [Compound 6, (6-((5-chloro-2-((4-(2-(dimethylamino)-7-azaspiro[3.5]nonan-7-yl)-5-ethyl-2-methoxyphenyl)amino)pyrimidin-4-yl)amino)-2,3-dimethylphenyl)dimethylphosphine oxide], the pIC50 in the experiment with A431 cells is less than 6.00; in experiment [1], 7.17; in experiment [2] it was 9.06.

For orientation: pIC50 means the negative decadic logarithm of the IC50, by convention in mol/L. Low values mean a high IC50, high ones a low IC50.
